B1: BMP-7: Recombinant human BMP-7 obtained from R&D systems (protein, UniProt P18075 293-431, looked up)
Bone morphogenetic protein 7: STGSKQRSQNRSKTPKNQEALRMANVAENSSSDQRQACKKHELYVSFRDLGWQDWIIAPEGYAAYYCEGECAFPLNSYMNATNHAIVQTLVHFINPETVPKPCCAPTQLNAISVLYFDDSSNVILKKYRNMVVRACGCH

How the values were obtained:
granulosa cell = test: GDF-9 and oocyte-induced granulosa cell DNA synthesis (Example 21); type: cell-based
Text: FIGS. 14A and 14B show the effect of an AlK4/5/7 inhibitor on either GDF-9, TGF-β1, or oocyte induced DNA synthesis (Panel A), and the effect of various concentrations of the inhibitor on GDF-9 and oocyte induced DNA synthesis (Panel B).

[1] = test system: cumulus expansion of oocytectomised (OOX) complexes; test: FSH-induced cumulus expansion score of OOX complexes; type: cell-based, mice; conditions: OOX complexes
Procedure: Members of the TGF-β superfamily are prime candidates for the mouse cumulus expansion-enabling factor (CEEF). This study was conducted to examine TGF-β superfamily processes regulating cumulus expansion. COCs were collected from eGG-primed mice and the oocyte microsurgically removed to generate oocytectomised (OOX) complexes. […] The type-I receptors for GDF9 and […] are ALK5 and ALK4, respectively. We tested the ability of an ALK4/5/7 kinase inhibitor to neutralize cumulus expansion.

Smad2/3 = test: CAGA-luciferase activity, activation of Smad2/3 (Example 21); type: cell-based
Text: FIGS. 15A and 15B show the effect of various concentrations of the AlK4/5/7 inhibitor on TGF-β1 stimulated CAGA luciferase activity.

[2] = test system: Smad 1-responsive BRE-luciferase reporter; test: Smad 1-responsive BRE-luciferase reporter in mural granulosa cells from large antral follicles; type: cell-based, marmoset monkey, Callithrix jacchus; conditions: 48 h; 0.5 ng/ml TGFβ1, 88-265 ng/ml GDF9, 50 ng/ml BMP7 or 60 mouse oocytes
Procedure: (§1) FIGS. 18A and 18B show the activation of the TGF-β signalling pathway by GDF9 and oocytes. MGC from large follicles were transiently transfected with either a Smad 3-responsive CAGA-luciferase reporter construct (A) or a Smad 1-responsive BRE-luciferase reporter construct (B). Cells were subsequently left untreated, treated with 0.5 ng/ml TGFβ1, 88-265 ng/ml GDF9, 50 ng/ml BMP7 or co-cultured with 60 mouse oocytes. Cells were cultured for 48 h after which time luciferase activity was measured from cell extracts. Bars represent means+/− SEM from 3 replicate experiments expressed as a fold change relative to control.
(§2) Luciferase reporter constructs responsive to specific phosphorylated Smads were used to detect the activation of mural GC Smad proteins by recombinant GDF9 Mural GCs were collected and processed as described above, except cells were given a final wash in DMEM(MP Biomedicals, Seven Hills, Australia)+2% FCS (Trace Biosciences, Castle Hill, Australia). Following the final wash, cells were transferred to individual wells of a 96-well plate (Falcon) and cultured at 1.6×10^5 cells/ml. After 4 hours of culture, cells were transiently transfected with 50 ng of luciferase reporter construct DNA using Fugene 6 (Roche Diagnostics, Castle Hill, Australia). 18 hours after transfection, medium was aspirated from cells and replaced with DMEM supplemented with 0.1% FCS. Various ligands were added to cells at this point (see below) and the culture period extended for a further 48 hours. Experiments were terminated by removing media from wells and freezing plates at −20° C. […]
(§3) Seven adult female marmosets were primed with […] for 6 days, whole ovaries were removed on day 7, follicles manually excised, and GC were then collected from 3 size classes: periantral (PA; 0.42-0.66 mm), small antral (SA; 0.66-1.5 mm) and large antral (LA; >1.5 mm). […] In order to determine the effects of GDF9 on marmoset GC proliferation, we employed a GC bioassay whereby after 24 h ^3H-thymidine incorporation is assessed as an indicator of DNA synthesis and cellular proliferation. […]

[3] = test system: Smad 3-responsive CAGA-luciferase reporter; test: Smad 3-responsive CAGA-luciferase reporter in mural granulosa cells from large antral follicles; type: cell-based, marmoset monkey, Callithrix jacchus; conditions: 48 h; 0.5 ng/ml TGFβ1, 88-265 ng/ml GDF9, 50 ng/ml BMP7 or 60 mouse oocytes
Procedure: as §1, §2, §3

cumulus cells = test: Cumulus cell apoptosis in oocytectomized complexes (OOX) and COC, TUNEL with confocal microscopy; type: cell-based, Bovine; conditions: OOX treated with 100 ng/ml BMP-7 and/or 10% BMP-15
Procedure: Bovine ovaries were collected from local abattoir and transported to the laboratory in warm saline (30-35° C.). Cumulus-oocyte complexes (COC) were aspirated from antral follicles (2- to 8-mm diameter) using an 18-gauge needle and a 10-ml syringe containing ˜2 ml aspiration media (Hepes-buffered Tissue Cultured Medium-199: TCM-199, ICN Biochemicals, Irvine, Calif., USA) supplemented with 50 μg/ml kanamycin (Sigma-Aldrish, St. louis, Mo.), 4 mg/ml fatty acid-free bovine serum albumin (FAF-BSA) (ICPbio ltd, Auckland, NZ). Intact COC with compact cumulus vestment greater than five cell layers and evenly pigmented cytoplasm were selected under a dissecting microscope and washed twice in Hepes-buffered TCM-199 and once in corresponding culturing media.
The cytoplasm of each oocyte was microsurgically removed from the COC (oocytectomy) using a micromanipulator as described in Buccione et al (Buccione et al. (1990) Dev Biol 138, 16-25.). The resulting oocytectomized complex (OOX) consists of a hollow zona pellucida surrounded by several layers of intact CC.
Denuded oocytes (DO) were generated by removing CC from COC by vortexing for approximately 4 minutes in 2 ml H-TCM-199/BSA. Any remaining CC were removed by repeated passage of the oocytes through a fine-bore fire-polished glass pipette in H-TCM-199/BSA.
CC apoptoic DNA was detected using TUNEl (Roche Diagnostic, Penzberg, Germany) according to the manufacturer's instructions. Briefly, following culture COC and OOX complexes were washed twice in PBS (pH 7.4) containing 1% BSA, fixed in 4% paraformaldehyde in PBS (pH 7.4) overnight at 4° C. and washed twice with PBS/BSA before placing on Cell-Tak-coated coverslips (Beckton Dickinson Biosciences, Franklin lakes, N.J.). Complexes were then permeabilized in 0.11/u Triton X-100 in 0.1% sodium citrate for 1 hour at room temperature and washed 3 times in PBS/BSA. The complexes were then incubated in fluorescein-conjugated dUTP and terminal deoxynucleotide transferase (TUNEl reagents, Roche) for 1 hour at 37° C. in the dark. Positive controls were incubated in DNAse 1 (0.005 U/µl), which cleaves all DNA, for 20 minutes at room temperature and washed twice in PBS/BSA before TUNEl. Negative controls were incubated in fluorescein-dUTP in the absence of TdT. After TUNEl, complexes were washed twice in PBS/BSA and counterstained with propidium iodide 0.5 μg/ml (PI) plus RNase A (0.1 mg/ml) for 1 hour at room temperature in the dark to label all nuclei. Complexes were then washed twice in PBS/BSA and mounted with slight coverslip compression in VectaShield anti-bleaching solution (Vector labs, Burlingame, Calif.), and stored in the dark at 4° C. for confocal analysis.
Apoptosis in COC and OOX was visualised and quantified using confocal microscopy. Dual fluorescence emission from CC was detected using a Nikon C1 Confocal Scanning Head and a Nikon TE2000E microscope (Nikon, Tokyo, Japan). Simultaneous emission capture of the apoptotic signal (fluorescein, lacer excitation 488 nm, emission 510-530 nm) and the nuclear signal (propidium iodide, excitation lacer 532, emission 590-640 nm) was performed.
In order to generate an accurate representation of the overall apoptotic incidence for all complexes, the depth of each complex was measured through a Z series to divide the construct into three percentiles (optical Z plane sections) at 25%, 50% and 75%. These optical section images were acquired and saved as independent colour channels (green, apoptotic cumulus fluorescence and red, nuclear cumulus fluorescence). The captured images were then processed in Scanalytics IPlab software Version 3.6. (Scanalytics, Fairfax, Va.). Quantification of CC number (for each colour channel) was independently measured using a macro script utilizing an auto segmentation filter for each optical section percentile (3 optical “z”-plane sections for each complex).

TGF-β1, GDF9 and oocyte-stimulated activation of Smad2/3 molecules (CAGA-luciferase activity) with inhibitor (Smad2/3)	Molecule	GDF-9 and oocyte-induced granulosa cell DNA synthesis with inhibitor (granulosa cell)	GDF-9 and oocyte-induced cumulus expansion with inhibitor [1]	BRE-luciferase activity compared to control levels [2]	CAGA-luciferase activity above control levels [3]	effect on cumulus cell apoptosis (cumulus cells)
completely abrogated	NC(=O)c1ccc(-c2nc(-c3ccccn3)c(-c3ccc4c(c3)OCO4)[nH]2)cc1 [ALK4/5/7 kinase inhibitor]	completely abrogated	completely neutralised			
	TGF-β1: Transforming growth factor beta 1 [reference compound]			not activated	19 fold	
	B1			31 fold	not stimulated	significantly reduced
